Test results published in patent US20230201209A1, “PHARMACEUTICAL COMPOSITION FOR PREVENTING OR TREATING CANCER CONTAINING ANTIVIRAL AGENT AND ANTIDEPRESSANT AS ACTIVE INGREDIENTS” (FRONTBIO INC., priority 2020, published 2023).

System: various cancer cells
Assay: MTT analysis, summary statements on various cancer cells
Format: cell-based
Conditions: not given
Description: Specifically, ASPC-1 cell line, which is a pancreatic cancer cell line, and HCT116 cell line, which is a colon cancer cell line, was incubated in a 100 mm culture dish using DMEM-10% FBS under 5% CO2 at 37° C., inoculated into each well of a 96-well plate at 20% confluence, and incubated for 24 hours. The incubated cell lines were treated with efavirenz at a concentration of 2 μM and fluoxetine at a concentration of 2 μM alone or in combination and cultured in a CO2 incubator for 24 hours. The culture medium was removed from each well, 100 pl of a fresh culture medium was added, and 10 μl of a 12 mM MTT stock solution (5 mg MTT/PBS) was added, and incubation was performed at 37° C. for 2 hours. Thereafter, 100 pl of SDS-HCl solution (1 g SDS/10 ml 0.01 M HCl), which was a reaction terminating solution, was added, incubation was performed at 37° C. for 4 hours, and OD was measured at 570 nm using a microplate leader. Percentage (%) growth inhibition was calculated by comparing the OD thus measured to the OD of the cells not treated with drugs.

SMILES | growth inhibitory effect in cancer cells
CC(C)CN(C[C@@H](O)[C@H](Cc1ccccc1)NC(=O)O[C@H]1CO[C@H]2OCC[C@H]21)S(=O)(=O)c1ccc(N)cc1 [darunavir] | a growth inhibitory effect is exerted
CNCC[C@H](Oc1cccc2ccccc12)c1cccs1 [duloxetine] | a growth inhibitory effect is exerted

Same assay, conditions: treated singly or in a complex, mixed or combined manner; MTT analysis

SMILES | growth inhibitory effect in cancer cells
CN(C)CCC=C1c2ccccc2CCc2ccccc21 [amitriptyline] | a growth inhibitory effect is exerted
Clc1ccc2c(c1)C(N1CCNCC1)=Nc1ccccc1O2 [amoxapine] | a growth inhibitory effect is exerted
COC(=O)N[C@H](C(=O)N[C@@H](Cc1ccccc1)[C@@H](O)CN(Cc1ccc(-c2ccccn2)cc1)NC(=O)[C@@H](NC(=O)OC)C(C)(C)C)C(C)(C)C [atazanavir] | a growth inhibitory effect is exerted
CN(C)CCCN1c2ccccc2CCc2ccc(Cl)cc21 [clomipramine] | a growth inhibitory effect is exerted
CNCCCN1c2ccccc2CCc2ccccc21 [desipramine] | a growth inhibitory effect is exerted
O=C1Nc2ccc(Cl)cc2[C@@](C#CC2CC2)(C(F)(F)F)O1 [efavirenz] | a growth inhibitory effect is exerted
Cc1cc(C#N)cc(C)c1Oc1nc(Nc2ccc(C#N)cc2)nc(N)c1Br [etravirine] | a growth inhibitory effect is exerted
CNCCC(Oc1ccc(C(F)(F)F)cc1)c1ccccc1 (centres unmarked) [fluoxetine] | a growth inhibitory effect is exerted
COCCCC/C(=N\OCCN)c1ccc(C(F)(F)F)cc1 [fluvoxamine] | a growth inhibitory effect is exerted
Cc1cccc(C)c1OCC(=O)N[C@@H](Cc1ccccc1)[C@@H](O)C[C@H](Cc1ccccc1)NC(=O)[C@H](C(C)C)N1CCCNC1=O [lopinavir] | a growth inhibitory effect is exerted
CNCCCC12CCC(c3ccccc31)c1ccccc12 [maprotyline, maprotiline] | a growth inhibitory effect is exerted
CN(C)CCC=C1c2ccccc2C(C)(C)c2ccccc21 [melitracene, melitracen] | a growth inhibitory effect is exerted
CN(C)C(=N)NC(=N)N [metformin] | a growth inhibitory effect is exerted
CNCCC=C1c2ccccc2CCc2ccccc21 [nortriptyline] | a growth inhibitory effect is exerted
Fc1ccc([C@@H]2CCNC[C@H]2COc2ccc3c(c2)OCO3)cc1 [paroxetine] | a growth inhibitory effect is exerted
CNCCCC1c2ccccc2C=Cc2ccccc21 [protriptyline] | a growth inhibitory effect is exerted
CC(C)c1nc(CN(C)C(=O)N[C@H](C(=O)N[C@@H](Cc2ccccc2)C[C@H](O)[C@H](Cc2ccccc2)NC(=O)OCc2cncs2)C(C)C)cs1 [ritonavir] | a growth inhibitory effect is exerted
CC(CN(C)C)CN1c2ccccc2CCc2ccccc21 (centres unmarked) [trimipramine] | a growth inhibitory effect is exerted
